Series [1] can be described thus: Cytotoxicity, MTT assay, HFF. It counts as cell-based, human. The following applies: human, HFF cells. On the procedure:
The human monocytic cell line THP-1 was cultivated in RPMI medium supplemented with 10% FCS, 2 mM GlutaMAX, 100 U/ml penicillin, and 100 μg/ml streptomycin. HFF cells were cultivated in Dulbecco's modified Eagle's medium (DMEM) with Earle's salts containing 10% FCS, 10 mM HEPES, 1 mM sodium pyruvate, 2 mM GlutaMAX, 100 U/ml penicillin, and 100 μg/ml streptomycin. The THP-1 and HFF cells were maintained in a 5% CO2 incubator at 37 °C. Cytotoxicity was evaluated via the MTT assay, and the IC50 values were calculated using Prism software (Prism 4 for Mac OS X, version 5.0b, December, 2008).

A further series has as its system HEPG2 cells. Briefly: Cytotoxicity, HEPG2 cell line. It counts as cell-based, human.
A short description of series [2]: Cytotoxicity, HEPG2 cell line. It counts as cell-based, human. As to conditions: human, HepG2 cells.
A further series deals with T1, HDAC 8 (Homo sapiens, UniProt Q9BY41).
T1 construct: purchased Active Motif, Belgium
T1 sequence (Q9BY41 1-377): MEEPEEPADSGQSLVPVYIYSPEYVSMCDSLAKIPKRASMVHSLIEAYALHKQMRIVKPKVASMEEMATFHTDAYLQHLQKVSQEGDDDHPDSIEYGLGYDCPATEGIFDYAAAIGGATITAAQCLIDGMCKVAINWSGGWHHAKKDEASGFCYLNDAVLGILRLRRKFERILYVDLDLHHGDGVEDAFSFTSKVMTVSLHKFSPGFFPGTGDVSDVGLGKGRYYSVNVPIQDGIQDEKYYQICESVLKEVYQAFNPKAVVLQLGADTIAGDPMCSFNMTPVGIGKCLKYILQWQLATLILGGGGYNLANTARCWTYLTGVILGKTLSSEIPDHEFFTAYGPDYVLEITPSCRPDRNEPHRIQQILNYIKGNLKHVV
Description: Fluorometric HDAC assay, recombinant HDAC8. It counts as biochemical. The procedure: (§1) The HDACi effect against HeLa nuclear extracts and recombinant proteins were measured using a fluorometric HDAC assay kit (Active Motif, Belgium) according to the manufacturer's instructions. […] A negative control containing trichostatin A at a final concentration of 2 μM was analyzed for each independent experiment.

Another series concerns the target T2, HDAC 3 (Homo sapiens, UniProt O15379).
T2 construct: purchased Active Motif, Belgium
Briefly: Fluorometric HDAC assay, recombinant HDAC3. It counts as biochemical. On the procedure:
as §1

The subject of series [3] is L. braziliensis MHOM/BR/75/M209. Description: Antileishmanial activity, L. braziliensis promastigotes (luciferase expressing strain). It counts as cell-based, Leishmania braziliensis. As to conditions: Leishmania braziliensis. On the procedure:
(§2) The antitrypanosomatid activity of the compounds was ascertained as follows. Leishmania parasites were cultured at 26 °C in SDM-79 medium supplemented with 10% fetal calf serum (FCS), and the antileishmanial activity was determined according to a previously published protocol for LUC-expressing and wild-type Leishmania ([Sereno et al., 2001], [Abbassi et al., 2008]). Trypanosoma brucei gambiense were grown at 26 °C in Cunningham's medium supplemented with 10% FCS, 2 mM GlutaMAX-1 (Gibco, USA), 100 U/ml penicillin, 100 μg/ml streptomycin and […] bovine hemin. The epimastigote form of Trypanosoma cruzi (strain Y cl7 scl2, lineage Tc2) (kindly provided by Philippe Truc and Christian Barnabé, UMR 177 IRD-CIRAD InterTryp, Montpellier, France) were grown at 26 °C in liver infusion tryptose (LIT) medium, supplemented with 10% FCS, 2 mM GlutaMAX™-I, 100 U/ml penicillin, 100 μg/ml streptomycin and bovine hemin (20 mg/l) (Gibco). The antitrypanosomatids activity was determined using a protocol that was initialy set up for wild-type Leishmania ([Abbassi et al., 2008]). To assess the drug activity on Toxoplasma gondii, confluent human foreskin fibroblast (HFF) monolayers were infected with YFP-type I Rh kindly provided by B. Striepen, see ([Striepen et al., 1998]) or Tomato-type II Pru kindly provided by N. Blanchard (Toulouse), expressing parasites at 5 × 10^4 per well, which were then centrifuged for 30 s at 1300 rpm and incubated for 30 min in a water bath at 37 °C to allow invasion. The wells were then washed three times with PBS to eliminate extracellular parasites, and the drugs were added at various concentrations ranging from 1 to 50 μM. After incubation for 24 h at 37 °C in a humidified atmosphere containing 5% CO2, the cells were fixed in 2.5% methanol-free formaldehyde (Tebu-bio)/PBS for 30 min at room temperature. Nuclei were stained with Hoechst 33258 (2 μg/ml, Molecular Probes) for 20 min and then washed three times with water for 10 min each time. The number of infected cells, i.e., cells harboring a parasitophorous vacuole, and the number of parasites per vacuole were determined using an Olympus ScanR microscope ( × 20 objective) and ScanR software. The parasitic index in % compared to the control was calculated as follows: (PI=((number of parasite/100 cells in treated wells) x (% of infected macrophage in treated well)/(number of parasite/100 cells in untreated wells) x (% of infected macrophage in untreated wells))*100).

Series [4] has as its system L. infantum MHOM/MA/67/ITMAP-264. Description: Antileishmanial activity, L. infantum promastigotes (luciferase expressing strain). It counts as cell-based, Leishmania infantum. On the procedure:
as §2

Another series concerns T. gondi RH-YFP. Description: Anti-Toxoplasma activity in infected HFF monolayers, type I RH-YFP (parasitic index). It counts as cell-based, Toxoplasma gondii.
Series [5] has as its system Pru Type II strain of T. gondii. Briefly: Anti-Toxoplasma activity in infected HFF monolayers, type II Pru strain. It counts as cell-based, Toxoplasma gondii. The following applies: for IC50: 24 h, type II strain, in HFF. The procedure:
as §2, with “The wells were then washed three times with PBS to eliminate extracellular parasites, and the drugs were added at various concentrations ranging from 1 to 50 μM. After incubation for 24 h at 37 °C in a humidified atmosphere containing 5% CO2, the cells were fixed in 2.5% methanol-free formaldehyde (Tebu-bio)/PBS for 30 min at room temperature. Nuclei were stained with Hoechst 33258 (2 μg/ml, Molecular Probes) for 20 min and then washed three times with water for 10 min each time.” left out

For the next series, the target named is T3, HDAC 1 (Homo sapiens, UniProt Q13547).
T3 construct: purchased Active Motif, Belgium
T3 sequence (Q13547 whole entry): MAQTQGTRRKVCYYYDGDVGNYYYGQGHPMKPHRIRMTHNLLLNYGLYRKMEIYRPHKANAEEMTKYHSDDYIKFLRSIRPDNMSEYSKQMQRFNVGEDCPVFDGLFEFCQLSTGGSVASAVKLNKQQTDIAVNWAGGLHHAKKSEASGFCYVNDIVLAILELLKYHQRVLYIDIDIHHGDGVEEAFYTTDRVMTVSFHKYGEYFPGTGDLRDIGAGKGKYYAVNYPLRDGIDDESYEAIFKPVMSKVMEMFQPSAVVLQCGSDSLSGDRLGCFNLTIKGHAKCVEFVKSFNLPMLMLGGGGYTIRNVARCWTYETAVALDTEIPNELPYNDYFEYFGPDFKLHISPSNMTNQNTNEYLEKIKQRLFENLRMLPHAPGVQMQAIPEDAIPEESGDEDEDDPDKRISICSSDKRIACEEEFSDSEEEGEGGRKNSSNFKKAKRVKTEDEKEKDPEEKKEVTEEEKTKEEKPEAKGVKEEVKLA
Description: Fluorometric HDAC assay, recombinant HDAC1. It counts as biochemical. The procedure: The HDACi effect against HeLa nuclear extracts and recombinant proteins were measured using a fluorometric HDAC assay kit (Active Motif, Belgium) according to the manufacturer's instructions. Briefly, 30 μL of HeLa nuclear extract (Active Motif, Belgium) or various HDAC recombinant proteins (Active Motif, Belgium) was mixed with 5 μL of a 10 × compound and 10 μL of assay buffer. A negative control containing trichostatin A at a final concentration of 2 μM was analyzed for each independent experiment. A fluorogenic substrate (10 μL) was added, and the reaction was allowed to proceed for 30 min at room temperature and then stopped by the addition of a developer containing trichostatin A. The fluorescence was monitored after 30 min at excitation and emission wavelengths of 360 and 460 nm, respectively.

Experimental findings from PMC6114082, “Synthesis of aminophenylhydroxamate and aminobenzylhydroxamate derivatives and in vitro screening for antiparasitic and histone deacetylase inhibitory activity” (International Journal for Parasitology: Drugs and Drug …, 2018) are described below.

Where only a bound is given, the exact number is not on record here.

T2 sequence (O15379 whole entry): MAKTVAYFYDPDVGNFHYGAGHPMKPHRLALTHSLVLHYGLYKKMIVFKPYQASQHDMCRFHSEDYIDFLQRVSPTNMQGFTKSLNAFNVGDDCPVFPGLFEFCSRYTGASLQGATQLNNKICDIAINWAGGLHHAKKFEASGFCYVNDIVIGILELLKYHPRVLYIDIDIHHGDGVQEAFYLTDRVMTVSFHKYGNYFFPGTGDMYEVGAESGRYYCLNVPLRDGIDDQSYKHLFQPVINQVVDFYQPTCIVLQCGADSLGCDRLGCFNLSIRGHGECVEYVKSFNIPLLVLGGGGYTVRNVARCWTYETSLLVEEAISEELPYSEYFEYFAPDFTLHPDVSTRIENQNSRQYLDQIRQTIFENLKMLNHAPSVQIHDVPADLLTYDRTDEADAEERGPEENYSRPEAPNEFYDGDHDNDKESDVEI
T2 sequence (O75376 395-489 partner limits assumed): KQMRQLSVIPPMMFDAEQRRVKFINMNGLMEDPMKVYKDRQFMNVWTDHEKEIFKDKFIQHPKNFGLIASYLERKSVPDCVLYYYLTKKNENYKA

Consider `COc1cccc(CC(=O)Nc2ccc(C(=O)NO)cc2)c1` [Compound 363, N-hydroxy-4-[2-(3-methoxyphenyl)acetamido]benzamide], for which the IC50 in [1] was 105000 ± 10500 nM; in series [2], over 15000 nM; at HDAC 8 (recombinant protein, read-out: rHDAC 8 IC50), 863 ± 45 nM; at HDAC 3 (recombinant protein, read-out: rHDAC 3 IC50), 160 ± 52 nM; in [3], over 60000 nM; in [4] (Leishmania infantum, promastigotes, luciferase expressing strain), over 60000 nM. Further, the IC50 in the series on T. gondi RH-YFP (Toxoplasma gondii, read-out: anti-Toxoplasma activity IC50, range over strains, type I and type II strains together (abstract)) was 350 to 2250 nM; in series [5] (Toxoplasma gondii), 2250 nM; in series [5] it was 2270 nM; on HDAC 1 (recombinant protein, read-out: rHDAC 1 IC50) it was 257 ± 50 nM. In the series on HEPG2 cells, the “index of selectivity, HEPG2 vs T. gondii tachyzoites” value is 42. The “Fold, HDAC 8” value at HDAC 8 (363 as compared to SAHA) is 0.26. The “Fold, HDAC 3” value on HDAC 3 (363 as compared to SAHA) turned out to be 1.06. In addition, in [4] (IC50 THP-1 / IC50 Leishmania infantum (footnote)), the “IS^b selectivity index for L. infantum” value is given as under 1. For the same molecule, in the series with T. gondi RH-YFP (IC50 HFF / IC50 T. gondi RH-YFP), the “IS^a selectivity index for T. gondi” value is given as 300. Also, the “selectivity index, range over human cell lines” value in the series on T. gondi RH-YFP (using different human cell lines) is listed as 10–300. Further, the “IS^a selectivity index for T. gondii, second value marked #” value in [5] (IC50 HFF / IC50 T. gondii type II Pru strain) was 46. Also, the “Fold, HDAC 1” value at HDAC 1 (363 as compared to SAHA) is 2.43.
